The values that follow are results of earlier work, collected in patent US7601870B2, “Substituted aniline derivatives” (priority 2004, dated 2009).

For data set [1], the system named is animal models of ethanol withdrawal syndrome. The note with it: in vivo.
The test system of data set [2] is K(+) current in neuronal cells.
Data set [3] concerns amygdala kindling model of complex partial seizures. The note with it: in vivo.
The subject of data set [4] is kainic acid-induced status epilepticus. The note with it: rat.
The subject of data set [5] is animal models of anxiety-like behaviour. The settings on record: in vivo.
The next data set relates to hippocampal kindling. The settings on record: rat.
In data set [6] the test system is animal models of neuropathic pain. The note with it: in vivo.
The subject of data set [7] is seizures in epileptic patients. The note with it: clinical trials.
For data set [8], the system named is electrically induced seizures, seizures induced chemically by pentylenetetrazole, picrotoxin and NMDA, DBA/2 mouse. The settings on record: oral and intraperitoneal administration in rats and mice.

Each structure is given as a SMILES string.

On to `NCC1(CC(=O)O)CCCCC1` [gabapentin], for which the “effect in ethanol withdrawal syndrome models” value in data set [1] is “very effective”.

Turning to `CCOC(=O)Nc1ccc(NCc2ccc(F)cc2)cc1N` [Retigabine, N-(2-amino-4-(4-fluorobenzylamino)-phenyl) carbamic acid ethyl ester], in data set [2], the “activation of K(+) current” value is “activate a K(+) current”. In data set [3], the “activity in amygdala kindling model” value is on record as “active”. Further, in data set [4], the “limbic neurodegeneration and markers of apoptosis” value was “prevent limbic neurodegeneration and the expression of markers of apoptosis”. The “activity in anxiety-like behaviour models” value in data set [5] is “active”. In the data set on hippocampal kindling, the “progression of hippocampal kindling” value is given as “delay the progression of hippocampal kindling”. The “effect in neuropathic pain models” value in data set [6] is reported as “beneficial”. Further, the incidence of seizures result in [7] was “effectiveness in reducing the incidence of seizures”. Moreover, the anticonvulsant activity result in data set [8] is reported as “active”.
